# Assay results: patent US20100168079A1 (priority 2008, published 2010)
# Target: T1, human S1P1 receptors (Homo sapiens, UniProt P21453)
# T1 construct: myc (N); expressed in transfected cells; host or cells: HeLa (human cervix carcinoma, ATCC CCL2), HeLa-S1P1/Gα16 cell clone 1
# Assay: Human S1P1 Receptor Calcium FLIPR Antagonist Assay (HeLa Gα16 S1P1)
# Type: cell-based
# Conditions: relative antagonism of Ca2+ signal evoked by probing agonist GNF-AC-1 at EC80; HeLa-S1P1/Gα16 cells
# Procedure: Human S1P1 Receptor Calcium FLIPR Antagonist Assay
# The cells are plated in 384 well black plates (10′000 cells per well). […] After washing, the cells are transferred to the FLIPR. The test compounds are added at different concentrations […]) in HBSS in the presence of 0.1% BSA and changes in fluorescence are recorded (indication of agonism). The probing agonist is added 20-30 minutes afterwards to the wells at a concentration giving 80% of the maximal activity (EC80). After each addition, time points are collected as follows: 20 time points (2 seconds) before the addition of the agonist (Fmin) and 60 time points (1 or 2 seconds) after the addition of the probing agonist. This allows the determination of the maximal fluorescence (Fmax). The ratio (Fmax-Fmin)/Fmin is plotted against the log of the concentration of the test compounds and the IC50 (relative antagonism) is calculated using the XLfit-4 software. […] A concentration-response curve of the probing agonist is determined on each plate in parallel.
# T1 sequence (P21453 whole entry): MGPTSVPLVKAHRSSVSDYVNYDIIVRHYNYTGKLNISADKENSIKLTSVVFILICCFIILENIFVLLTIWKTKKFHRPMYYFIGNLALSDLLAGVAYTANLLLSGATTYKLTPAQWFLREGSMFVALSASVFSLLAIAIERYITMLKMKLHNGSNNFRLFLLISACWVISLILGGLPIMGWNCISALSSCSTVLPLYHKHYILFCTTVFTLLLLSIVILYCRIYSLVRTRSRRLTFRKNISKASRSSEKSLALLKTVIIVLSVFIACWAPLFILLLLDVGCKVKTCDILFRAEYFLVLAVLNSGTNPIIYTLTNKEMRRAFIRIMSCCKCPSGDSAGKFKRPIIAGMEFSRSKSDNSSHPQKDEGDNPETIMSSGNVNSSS
row,SMILES,IC50
1,"Cc1cc(C(C)Nc2cccc(-c3ccc(C(=O)N[C@@H](C)C(=O)O)c(Cl)c3)c2)cc(C)c1Cl (stereo partly drawn) [Example 52, (S)-2-({3-Chloro-3′-[1-(4-chloro-3,5-dimethyl-phenyl)-ethylamino]-biphenyl-4-carbonyl}-amino)-propionic acid]",1 nM
2,"Cc1cc(C(C)Nc2cccc(-c3ccc(C(=O)N(C)[C@@H](C)C(=O)O)c(Cl)c3)c2)cc(C)c1Cl (stereo partly drawn) [Example 53, (S)-2-({3-Chloro-3′-[1-(4-chloro-3,5-dimethyl-phenyl)-ethylamino]-biphenyl-4-carbonyl}-methyl-amino)-propionic acid]",5 nM
3,"Cc1cc(C(C)Nc2cccc(-c3ccc(C(=O)N(C)[C@@H](C)C(=O)O)c(F)c3)c2)cc(C)c1Cl (stereo partly drawn) [Example 55, (S)-2-({3′-[1-(4-Chloro-3,5-dimethyl-phenyl)-ethylamino]-3-fluoro-biphenyl-4-carbonyl}-methyl-amino)-propionic acid]",9 nM
4,"Cc1cc(C(C)Nc2cccc(-c3cc(F)c(C(=O)N(C)[C@@H](C)C(=O)O)c(F)c3)c2)cc(C)c1Cl (stereo partly drawn) [Example 57, (S)-2-({3′-[1-(4-Chloro-3,5-dimethyl-phenyl)-ethylamino]-3,5-difluoro-biphenyl-4-carbonyl}-methyl-amino)-propionic acid]",6 nM
5,"CCC(Nc1cccc(-c2ccc(C(=O)N(C)[C@@H](C)C(=O)O)c(C)c2)c1)c1ccc(Cl)c(C)c1 (stereo partly drawn) [Example 58, (S)-2-({3′-[1-(4-Chloro-3-methyl-phenyl)-propylamino]-3-methyl-biphenyl-4-carbonyl}-methyl-amino)-propionic acid]",2 nM
6,"Cc1cc(-c2cccc(NC(C)c3cc(C)c(Cl)c(C)c3)c2)ccc1C(=O)N(C)[C@@H](C)C(=O)O (stereo partly drawn) [Example 59, (S)-2-({3′-[1-(4-Chloro-3,5-dimethyl-phenyl)-ethylamino]-3-methyl-biphenyl-4-carbonyl}-methyl-amino)-propionic acid]",3 nM
7,"CCC(Nc1cccc(-c2ccc(C(=O)N(C)[C@@H](C)C(=O)O)c(Cl)c2)c1)c1ccc(Cl)c(C)c1 (stereo partly drawn) [Example 61, (S)-2-({3-Chloro-3′-[1-(4-chloro-3-methyl-phenyl)-propylamino]-biphenyl-4-carbonyl}-methyl-amino)-propionic acid]",1 nM
8,"Cc1cc(C(C)Nc2cccc(-c3ccc(C(=O)N(C)[C@@H](C)C(=O)O)c(C(F)(F)F)c3)c2)ccc1Cl (stereo partly drawn) [Example 63, (S)-2-({3′-[1-(4-Chloro-3-methyl-phenyl)-ethylamino]-3-trifluoromethyl-biphenyl-4-carbonyl}-methyl-amino)-propionic acid]",2 nM
9,"Cc1cc(C(C)Nc2cccc(-c3ccc(C(=O)N[C@@H](C)C(=O)O)c(C(F)(F)F)c3)c2)cc(C)c1Cl (stereo partly drawn) [Example 64, (S)-2-({3′-[1-(4-Chloro-3,5-dimethyl-phenyl)-ethylamino]-3-trifluoromethyl-biphenyl-4-carbonyl}-amino)-propionic acid]",1 nM
10,"CCC(Nc1cccc(-c2ccc(C(=O)N[C@@H](C)C(=O)O)c(C(F)(F)F)c2)c1)c1ccc(Cl)c(C)c1 (stereo partly drawn) [Example 66, (S)-2-({3′-[1-(4-Chloro-3-methyl-phenyl)-propylamino]-3-trifluoromethyl-biphenyl-4-carbonyl}-amino)-propionic acid]",3 nM
11,"Cc1cc(C(C)Nc2cccc(-c3cc(C)c(C(=O)NCC(=O)O)c(C)c3)c2)ccc1Cl (centres unmarked) [Example 68, ({3′-[1-(4-Chloro-3-methyl-phenyl)-ethylamino]-3,5-dimethyl-biphenyl-4-carbonyl}-amino)-acetic acid]",1 nM
12,"Cc1cc(C(C)Nc2cccc(-c3cc(C)c(C(=O)NC4(C(=O)O)CCC4)c(C)c3)c2)ccc1Cl (centres unmarked) [Example 72, 1-({3′-[1-(4-Chloro-3-methyl-phenyl)-ethylamino]-3,5-dimethyl-biphenyl-4-carbonyl}-amino)-cyclobutanecarboxylic acid]",2 nM
13,Cc1cc(C(C)Nc2cccc(-c3ccc(C(=O)N(C)[C@@H](C)C(=O)O)c(C)c3)c2)ccc1Cl (some centres unmarked) [Example 76],3 nM
14,"Cc1cc(C(C)Nc2cccc(-c3cc(C)c(C(=O)NC4(C(=O)O)CNC4)c(C)c3)c2)ccc1Cl (centres unmarked) [Example 79, 3-({3′-[1-(4-Chloro-3-methyl-phenyl)-ethylamino]-3,5-dimethyl-biphenyl-4-carbonyl}-amino)-azetidine-3-carboxylic acid]",2 nM
15,"Cc1cc(C(C)N(C)c2cccc(-c3cc(C)c(C(=O)N[C@@H](C)C(=O)O)c(C)c3)c2)ccc1Cl (stereo partly drawn) [Example 80, (S)-2-[(3′-{[1-(4-Chloro-3-methyl-phenyl)-ethyl]-methyl-amino}-3,5-dimethyl-biphenyl-4-carbonyl)-amino]-propionic acid]",4 nM
16,"CCC(Nc1ccc(F)c(-c2ccc(C(=O)N(C)[C@@H](C)C(=O)O)c(C)c2)c1)c1ccc(Cl)c(C)c1 (stereo partly drawn) [Example 86, (S)-2-({5′-[1-(4-Chloro-3-methyl-phenyl)-propylamino]-2′-fluoro-3-methyl-biphenyl-4-carbonyl}-methyl-amino)-propionic acid]",6 nM
17,"Cc1cc(C(C)Nc2ccc(F)c(-c3ccc(C(=O)N(C)[C@@H](C)C(=O)O)c(Cl)c3)c2)ccc1Cl (stereo partly drawn) [Example 87, (S)-2-({3-Chloro-5′-[1-(4-chloro-3-methyl-phenyl)-ethylamino]-2′-fluoro-biphenyl-4-carbonyl}-methyl-amino)-propionic acid]",4 nM
18,"Cc1cc(C(Nc2cccc(-c3cc(C)c(C(=O)N[C@@H](C)C(=O)O)c(C)c3)c2)C(C)C)ccc1Cl (stereo partly drawn) [Example 90, (S)-2-({3′-[1-(4-Chloro-3-methyl-phenyl)-2-methyl-propylamino]-3,5-dimethyl-biphenyl-4-carbonyl}-amino)-propionic acid]",10 nM
19,"Cc1cc(C(Nc2cccc(-c3ccc(C(=O)N(C)[C@@H](C)C(=O)O)c(C(F)(F)F)c3)c2)C(F)(F)F)ccc1Cl (stereo partly drawn) [Example 91, (S)-2-({3′-[1-(4-Chloro-3-methyl-phenyl)-2,2,2-trifluoro-ethylamino]-3-trifluoromethyl-biphenyl-4-carbonyl}-methyl-amino)-propionic acid]",4 nM

# Further compounds by falling IC50, results first:
row,IC50,SMILES
1,13 nM,"CCC(Nc1ccc(F)c(-c2ccc(C(=O)N(C)[C@@H](C)C(=O)O)c(C(F)(F)F)c2)c1)c1ccc(Cl)c(C)c1 (stereo partly drawn) [Example 89, (S)-2-({5′-[1-(4-Chloro-3-methyl-phenyl)-propylamino]-2′-fluoro-3-trifluoromethyl-biphenyl-4-carbonyl}-methyl-amino)-propionic acid]"
2,7 nM,"Cc1cc(-c2cccc(NC(C)c3ccc(Cl)c(Cl)c3)c2)ccc1C(=O)N(C)[C@@H](C)C(=O)O (stereo partly drawn) [Example 78, (S)-2-({3′-[1-(3,4-Dichloro-phenyl)-ethylamino]-3-methyl-biphenyl-4-carbonyl}-methyl-amino)-propionic acid]"
3,6 nM,"Cc1cc(C(C)Nc2cccc(-c3ccc(C(=O)N(C)[C@@H](C)C(=O)O)c(C(F)(F)F)c3)c2)cc(C)c1Cl (stereo partly drawn) [Example 65, (S)-2-({3′-[1-(4-Chloro-3,5-dimethyl-phenyl)-ethylamino]-3-trifluoromethyl-biphenyl-4-carbonyl}-methyl-amino)-propionic acid]"
4,5 nM,CCC(Nc1ccc(F)c(-c2ccc(C(=O)N(C)[C@@H](C)C(=O)O)c(Cl)c2)c1)c1ccc(Cl)c(C)c1 (some centres unmarked) [Example 88]
5,3 nM,"CCC(Nc1cccc(-c2ccc(C(=O)N(C)[C@@H](C)C(=O)O)c(C(F)(F)F)c2)c1)c1ccc(Cl)c(C)c1 (stereo partly drawn) [Example 67, (S)-2-({3′-[1-(4-Chloro-3-methyl-phenyl)-propylamino]-3-trifluoromethyl-biphenyl-4-carbonyl}-methyl-amino)-propionic acid]"
6,2 nM,"COC[C@H](NC(=O)c1c(C)cc(-c2cccc(NC(C)c3ccc(Cl)c(C)c3)c2)cc1C)C(=O)O (stereo partly drawn) [Example 69, (S)-2-({3′-[1-(4-Chloro-3-methyl-phenyl)-ethylamino]-3,5-dimethyl-biphenyl-4-carbonyl}-amino)-3-methoxy-propionic acid]"
7,2 nM,"Cc1cc(C(C)Nc2cccc(-c3cc(C)c(C(=O)N[C@@H](CCCCN)C(=O)O)c(C)c3)c2)ccc1Cl (stereo partly drawn) [Example 70, (S)-6-Amino-2-({3′-[1-(4-chloro-3-methyl-phenyl)-ethylamino]-3,5-dimethyl-biphenyl-4-carbonyl}-amino)-hexanoic acid]"
8,1 nM,"Cc1cc(C(C)Nc2cccc(-c3cc(F)c(C(=O)N[C@@H](C)C(=O)O)c(F)c3)c2)cc(C)c1Cl (stereo partly drawn) [Example 56, (S)-2-({3′-[1-(4-Chloro-3,5-dimethyl-phenyl)-ethylamino]-3,5-difluoro-biphenyl-4-carbonyl}-amino)-propionic acid]"
9,1 nM,"CCC(Nc1cccc(-c2ccc(C(=O)N[C@@H](C)C(=O)O)c(Cl)c2)c1)c1ccc(Cl)c(C)c1 (stereo partly drawn) [Example 60, (S)-2-({3-Chloro-3′-[1-(4-chloro-3-methyl-phenyl)-propylamino]-biphenyl-4-carbonyl}-amino)-propionic acid]"
10,1 nM,"Cc1cc(C(C)Nc2cccc(-c3ccc(C(=O)N[C@@H](C)C(=O)O)c(C(F)(F)F)c3)c2)ccc1Cl (stereo partly drawn) [Example 62, (S)-2-({3′-[1-(4-Chloro-3-methyl-phenyl)-ethylamino]-3-trifluoromethyl-biphenyl-4-carbonyl}-amino)-propionic acid]"
